What was measured:
[1] = system: human GLP-1R A316T versus WT; experiment: Real-time cAMP imaging (cADDis) in mouse islets; format: cell-based; conditions: chow-fed mouse islets; 100 nM; 6 mM glucose; AUC; n = 4; not significant; Fig. 5D-F
Protocol: To measure cAMP, hGLP1R^A316T/A316T versus ^+/+ control mouse islets, or INS-1 832/3 SNAP/FLAG-hGLP1R^WT versus ^A316T cells cultured on glass-bottom MatTek dishes, were transduced with cADDis (Green Gs cADDis cAMP Kit, Montana Molecular), a baculovirus genetically encoding a fluorescent cAMP in situ biosensor, following the manufacturer’s instructions. Transduced islets were subsequently encased into Matrigel on glass-bottom MatTek dishes 24 hours after transduction, and both islets and cells were imaged at λex = 488 nm in a Nikon Eclipse Ti spinning disk confocal microscope and 20× objective with an ORCA-Flash 4.0 camera (Hamamatsu) for time-lapse recordings with image acquisitions every 6 s in KRBH buffer containing 0.1% (w/v) BSA and 6 mM glucose for 2 min to record the baseline, with 100 nM GLP-1RA subsequently added by manual pipetting, and islets imaged for a further 5 min before addition of 100 μM IBMX + 10 μM forskolin for the final 2 min of the acquisition. Raw green fluorescence intensity traces were extracted from whole islet regions of interest (ROIs) using Fiji, and mean intensities were calculated for each ROI and time point. Responses were plotted relative to average fluorescence intensity per islet during the baseline period before GLP-1RA addition.

[2] = system: SNAP/FLAG-hGLP1R^A316T versus ^WT; experiment: GLP-1R recruitment to detergent-resistant membrane fractions (lipid rafts); format: cell-based, human; conditions: 100 nM, 2 min; fold to vehicle; n = 5; Fig. 8G
Protocol: signal serially monitored for 30 min. The TR-FRET ratio, i.e. the ratio of fluorescence intensities at 590 and 490 nm, was considered indicative of the proximity of the GLP-1R ECD to the plasma membrane.
Baseline-normalised AUCs were used to generate concentration– response curves fitted using GraphPad Prism 10.1.2, with logEC50 and Emax calculated for each replicate dose response curve.
Real- time c ytosolic c alcium a ssay hGLP1R-/- mouse islets were transduced with pAV- SNAP/FLAG-hGLP1RWT or A316T adenoviruses for 24 hours, labelled with the Ca2+ dye Cal-520, AM (4.5 μM; Stratech) diluted in KBRH buffer containing 6 mM glucose for 1 hour and encased in Matrigel onto […] glass bottom MatTek dishes. […] Raw fluorescence intensity traces from islet ROIs were extracted using Fiji. Responses were plotted relative to the average fluorescence intensity during the 6 mM glucose baseline period, before agonist addition, and AUCs separately calculated for the GLP- 1RA + 6 mM and 11 mM glucose […]
were resuspended in 200 μL ice-cold PBS supplemented with cOmplete EDTA-free protease inhibitor cocktail (Roche) and phosphatase inhibitor cocktail 2 and 1% Triton X-100, followed by rotating incubation for 30 min at 4°C. […] GLP-1R enrichment into DRMs was calculated from SNAP over flotillin band intensity levels under the different conditions […]

Row | Substance | cAMP response to agonist, A316T/A316T versus +/+ islets [1] | Lipid raft segregation/localization in response to agonist, A316T versus WT [2]
1 | exendin-4 | trend for reduced cAMP | significantly reduced
2 | GLP-1(7-36)NH2 |  | no changes
3 | exendin-F1 | near-significant increase in cAMP | 

Reference: paper PMC13267291, “In vivo functional profiling and structural characterization of the human GLP1R A316T variant” (Science Advances, 2026)
